Measured values published in patent US7713994B2 (Wyeth LLC, priority 2005, dated 2010).

Molecular target: T1, IGF1-receptor kinase (Homo sapiens, UniProt P08069)
T1 construct: Purified GST-IGFR; purified Bis-IGFR and Tris-IGFR; fused on or other part: GST with a thrombin cleavage site, removed in the Bis-IGFR and Tris-IGFR forms
Assay: IGF1-R kinase assay (96-well FRET Lance)
Assay type: biochemical
Conditions: for inhibition at 10 µM: read-out: Igfr % Inhibition at 10 uM; for IC50: 100 micromolar ATP, read-out: Igfr ic50
Source text: • TITLE: 96-well assay for inhibitors of IGF1-receptor kinase activity • SHORT TITLE: IGF1-R kinase assay • PURPOSE: Identify inhibitors of IGF-1 receptor kinase activity • MATERIALS AND METHODS: Overview: This is a 96-well FRET (Lance) tyrosine kinase assay. • Materials: • Purified GST-IGFR; purified Bis-IGFR and Tris-IGFR; expressed in ExpresSF insect cells. Bis and Tris IGFR are made by phosphorylating the IGFR in the presence of ATP and Mg2+, followed by thrombin cleavage to remove the GST-thrombin cleavage site, and purification by HPLC. The Bis and tris IGFR are phosphorylated on two (bis) or all three tyrosines (tris) in the activation loop. • Biotinylated peptide with a sequence corresponding to the sequence surrounding the autophosphorylation sites in IGF1-R Biotin-NH2-[…]-OH (Anaspec) • Europium-conjugated phosphotyrosine antibody (PT66) (Perkin-Elmer). • Surelight APC (Perkin-elmer) • Plates: 96-well Assay plates (polypropylene plates, natural color) • 96-well-Lance plates (Microfluor 2 black plates; Cat # 7205; Thermolabsystems. • ATP: (Amersham Pharmacia Cat # 27-2056-01), 100 mM stock. • IGFR Lance Protocol (96-well format) • Procedure: • Reagents: • Kinase Buffer (10×): • 0.5 M Hepes, pH 7.5 rt • 0.1 M MgCl2 • Quench Buffer (to be added straight, 1:1, to r×n mix): • 50 mM Hepes, pH 7.5 rt • 50 mM EDTA • Lance Detection Buffer: • 20 mM Tris-HCl, pH 7.5 rt • 0.15 M NaCl-150 • 150 ug/ml BSA (Sigma Cat# A-7284) • Eu-labeled phosphotyrosine antibody PT66 (Perkin-Elmer): 1:4000 dilution of 200 μg/ml stock • Streptavidin-APC (Perkin Elmer): 1/250 (4 microgram/ml final) • ATP (Amersham Pharmacia cat #27-2056-01) 100 mM stock: Dilute to 1 mM (10×) in water. […] Transfer 12.5[…] of the kinase reaction to the antibody detection plate. Allow antibody to react for 1 h at rt in the dark. Then read in Victor with an excitation filter of 340 nm and an emission filter of 665 nm. • Compound additions: • When Example compounds are tested, they are added from a 10% DMSO/50 mM Hepes (pH 7.5) 10× stock. 5 microliters of compound in this buffer are added to the enzyme-peptide-buffer mix. After 10′ incubation at room temperature, ATP is added to start the reaction. A no ATP background control is included in the assay. • […] OF RESULTS: Data are analyzed as follows: % Inhibition={[Sample cpm−Bkg cpm]/[No cmpd cpm−Bkg cpm]}×100%. The biological activity of representative Examples of the invention is reported in Table VII as: 0.2 µM≦x≦10 µM or % inhibition@10 µM.

T1 sequence (P08069 999-1274 limits assumed): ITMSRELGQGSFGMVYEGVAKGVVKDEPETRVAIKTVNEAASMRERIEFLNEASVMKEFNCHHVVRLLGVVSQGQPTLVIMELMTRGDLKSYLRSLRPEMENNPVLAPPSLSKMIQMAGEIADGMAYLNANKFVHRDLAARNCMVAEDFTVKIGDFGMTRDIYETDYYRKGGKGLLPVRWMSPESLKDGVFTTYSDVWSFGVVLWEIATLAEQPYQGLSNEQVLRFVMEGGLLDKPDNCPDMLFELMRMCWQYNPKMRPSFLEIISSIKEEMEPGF

Row | SMILES | IC50 [nM] | also measured
1 | Cc1cccc(Nc2ccc3c(c2)/C(=C/Nc2ccc(CN4CCCCC4)cc2)C(=O)NC3=O)c1 [Example 884, (4Z)-6-[(3-methylphenyl)amino]-4-({[4-(piperidin-1-ylmethyl)phenyl]amino}methylene)isoquinoline-1,3(2H,4H)-dione] |  | inhibition at 10 µM (10 uM compound): 20%
2 | Cc1ccc(Nc2ccc3c(c2)/C(=C/Nc2ccc(CN4CCCCC4)cc2)C(=O)NC3=O)cc1 [Example 889, (4Z)-6-[(4-methylphenyl)amino]-4-({[4-(piperidin-1-ylmethyl)phenyl]amino}methylene)isoquinoline-1,3(2H,4H)-dione] | 394 | 
3 | N#Cc1cccc(Nc2ccc3c(c2)/C(=C/Nc2ccc(CN4CCCCC4)cc2)C(=O)NC3=O)c1 [Example 893, 3-{[(4Z)-1,3-dioxo-4-({[4-(piperidin-1-ylmethyl)phenyl]amino}methylene)-1,2,3,4-tetrahydroisoquinolin-6-yl]amino}benzonitrile] | 708 | 
4 | CC(=O)c1cccc(Nc2ccc3c(c2)/C(=C/Nc2ccc(CN4CCCCC4)cc2)C(=O)NC3=O)c1 [Example 885, (4Z)-6-[(3-acetylphenyl)amino]-4-({[4-(piperidin-1-ylmethyl)phenyl]amino}methylene)isoquinoline-1,3(2H,4H)-dione] | 360 | 
5 | O=C1NC(=O)c2ccc(Nc3ccc4c(c3)OCO4)cc2/C1=C/Nc1ccc(CN2CCCCC2)cc1 [Example 896, (4Z)-6-(1,3-benzodioxol-5-ylamino)-4-({[4-(piperidin-1-ylmethyl)phenyl]amino}methylene)isoquinoline-1,3(2H,4H)-dione] | 830 | 
6 | COc1cc(Nc2ccc3c(c2)/C(=C/Nc2ccc(CN4CCCCC4)cc2)C(=O)NC3=O)cc(C(F)(F)F)c1 [Example 900] |  | Igfr % Inhibition at 10 uM (10 uM compound): 20%
7 | Cc1ccccc1Nc1ccc2c(c1)/C(=C/Nc1ccc(CN3CCCCC3)cc1)C(=O)NC2=O [Example 882, 4-[(4-piperidin-1-ylmethyl-phenylamino)-methylene]-6-o-tolylamino-4H-isoquinoline-1,3-dione] | 4470 | 
8 | CN(C)c1ccc(Nc2ccc3c(c2)/C(=C/Nc2ccc(CN4CCCCC4)cc2)C(=O)NC3=O)cc1 [Example 888, (4Z)-6-{[4-(dimethylamino)phenyl]amino}-4-({[4-(piperidin-1-ylmethyl)phenyl]amino}methylene)isoquinoline-1,3(2H,4H)-dione] |  | inhibition at 10 µM (10 uM compound): 14%
9 | O=C1NC(=O)c2ccc(Nc3ccc4c(c3)CCC4)cc2/C1=C/Nc1ccc(CN2CCCCC2)cc1 [Example 895, (4Z)-6-(2,3-dihydro-1H-inden-5-ylamino)-4-({[4-(piperidin-1-ylmethyl)phenyl]amino}methylene)isoquinoline-1,3(2H,4H)-dione] | 7220 | 
10 | CC(=O)c1cccc(Nc2ccc3c(c2)/C(=C/Nc2ccc(N4CCN(C)CC4)cc2)C(=O)NC3=O)c1 [Example 881] | 361 | 
11 | O=C1NC(=O)c2ccc(Nc3cccc(C(F)(F)F)c3)cc2/C1=C/Nc1ccc(CN2CCCCC2)cc1 [Example 886, (4Z)-4-({[4-(piperidin-1-ylmethyl)phenyl]amino}methylene)-6-{[3-(trifluoromethyl)phenyl]amino}isoquinoline-1,3(2H,4H)-dione] |  | inhibition at 10 µM (10 uM compound): 32%

More lines, main results first:

Row | IC50 [nM] | SMILES | also measured
12 | 540 | CC(=O)c1cccc(Nc2ccc3c(c2)/C(=C/Nc2ccc(N4CC(C)NC(C)C4)cc2)C(=O)NC3=O)c1 (stereo not shown) [Example 910, (4Z)-6-[(3-acetylphenyl)amino]-4-({[4-(3,5-dimethylpiperazin-1-yl)phenyl]amino}methylene)isoquinoline-1,3(2H,4H)-dione] | 
13 | 3090 | O=C1NC(=O)c2ccc(Nc3cccc(F)c3)cc2/C1=C/Nc1ccc(CN2CCCCC2)cc1 [Example 899, (4Z)-6-[(3-fluorophenyl)amino]-4-({[4-(piperidin-1-ylmethyl)phenyl]amino}methylene)isoquinoline-1,3(2H,4H)-dione] | 
14 | 566 | COc1ccc(Nc2ccc3c(c2)/C(=C/Nc2ccc(CN(C)C)cc2)C(=O)NC3=O)cc1 [Example 908, (4Z)-4-[({4-[(dimethylamino)methyl]phenyl}amino)methylene]-6-[(4-methoxyphenyl)amino]isoquinoline-1,3(2H,4H)-dione] | 
15 | 1390 | COc1cccc(Nc2ccc3c(c2)/C(=C/Nc2ccc(CN(C)C)cc2)C(=O)NC3=O)c1 [Example 907, (4Z)-4-[({4-[(dimethylamino)methyl]phenyl}amino)methylene]-6-[(3-methoxyphenyl)amino]isoquinoline-1,3(2H,4H)-dione] | 
16 | 920 | CN(C)Cc1ccc(N/C=C2\C(=O)NC(=O)c3ccc(Nc4ccccc4)cc32)cc1 [Example 906, (4Z)-6-anilino-4-[({4-[(dimethylamino)methyl]phenyl}amino)methylene]isoquinoline-1,3(2H,4H)-dione] | 
17 | 2620 | O=C1NC(=O)c2ccc(Nc3cccc(Cl)c3)cc2/C1=C/Nc1ccc(CN2CCCCC2)cc1 [Example 905] | 
18 | 887 | CC(=O)c1cccc(Nc2ccc3c(c2)/C(=C/Nc2ccc(CN(C)C)cc2)C(=O)NC3=O)c1 [Example 909, (4Z)-6-[(3-acetylphenyl)amino]-4-[({4-[(dimethylamino)methyl]phenyl}amino)methylene]isoquinoline-1,3(2H,4H)-dione] | 
19 | 6160 | O=C1NC(=O)c2ccc(Nc3cccc4ncccc34)cc2/C1=C/Nc1ccc(CN2CCCCC2)cc1 [Example 913, (4Z)-4-({[4-(piperidin-1-ylmethyl)phenyl]amino}methylene)-6-(quinolin-5-ylamino)isoquinoline-1,3(2H,4H)-dione] | 
20 | 6030 | CC(=O)c1ccc(Nc2ccc3c(c2)/C(=C/Nc2ccc(CN4CCCCC4)cc2)C(=O)NC3=O)cc1 [Example 901, (4Z)-6-[(4-acetylphenyl)amino]-4-({[4-(piperidin-1-ylmethyl)phenyl]amino}methylene)isoquinoline-1,3(2H,4H)-dione] | 
21 | 1520 | N#Cc1ccc(Nc2ccc3c(c2)/C(=C/Nc2ccc(CN4CCCCC4)cc2)C(=O)NC3=O)cc1 [Example 897, 4-{[(4Z)-1,3-dioxo-4-({[4-(piperidin-1-ylmethyl)phenyl]amino}methylene)-1,2,3,4-tetrahydroisoquinolin-6-yl]amino}benzonitrile] | 
22 | 1160 | CCN(CC)Cc1ccc(N/C=C2\C(=O)NC(=O)c3ccc(Nc4ccc(C)cc4)cc32)cc1 [Example 911, (4Z)-4-[({4-[(diethylamino)methyl]phenyl}amino)methylene]-6-[(4-methylphenyl)amino]isoquinoline-1,3(2H,4H)-dione] | 
